From patent publication US20170202932A1, “METHODS FOR INHIBITING NEURON APOPTOSIS AND NECROSIS” (NEWSOUTH INNOVATIONS PTY LIMITED, priority 2012, published 2017)

Assays:
[1] = target: T1, recombinant mouse TRPC3b channels (Mus musculus, UniProt Q9QZC1, R524G); assay: Indo-1 ratiometric Ca2+ imaging of CCh-activated Ca2+ entry, HEK293 cells expressing TRPC3b; assay type: cell-based; details: genistein 200 μM pre-incubation, n=5, without genistein 182.7±20.8 nM
T1 construct: Full length mouse TRPC3 transcripts were obtained by PCR; expressed in transfected cells; host or cells: HEK293 cells, stably transfected (pIRES-DsRed2 vector)
T1 sequence (Q9QZC1 75-910 R524G limits assumed): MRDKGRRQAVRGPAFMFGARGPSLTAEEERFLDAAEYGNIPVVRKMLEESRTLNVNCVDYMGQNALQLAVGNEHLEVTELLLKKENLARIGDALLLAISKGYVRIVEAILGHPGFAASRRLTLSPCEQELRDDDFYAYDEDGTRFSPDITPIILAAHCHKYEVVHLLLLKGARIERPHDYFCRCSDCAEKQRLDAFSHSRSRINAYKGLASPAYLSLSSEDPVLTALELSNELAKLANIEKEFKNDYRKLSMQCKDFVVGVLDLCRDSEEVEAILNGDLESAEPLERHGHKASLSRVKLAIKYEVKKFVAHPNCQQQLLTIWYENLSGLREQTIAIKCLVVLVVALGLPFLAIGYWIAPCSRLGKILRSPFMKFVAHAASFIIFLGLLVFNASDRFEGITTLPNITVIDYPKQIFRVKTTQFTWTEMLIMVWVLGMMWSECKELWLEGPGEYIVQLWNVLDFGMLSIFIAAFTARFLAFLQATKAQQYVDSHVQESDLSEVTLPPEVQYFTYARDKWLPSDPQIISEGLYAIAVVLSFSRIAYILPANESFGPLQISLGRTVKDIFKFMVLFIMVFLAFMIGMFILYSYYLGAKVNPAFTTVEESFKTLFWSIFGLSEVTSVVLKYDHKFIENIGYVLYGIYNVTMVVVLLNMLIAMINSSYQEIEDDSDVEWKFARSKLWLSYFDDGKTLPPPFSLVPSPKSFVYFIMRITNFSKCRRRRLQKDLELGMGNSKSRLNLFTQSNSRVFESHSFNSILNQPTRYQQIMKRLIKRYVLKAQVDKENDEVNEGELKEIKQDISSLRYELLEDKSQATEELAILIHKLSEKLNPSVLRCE
Experimental: (§1) The TRPC3-mediated Ca^2+ entry through two distinct activation pathways was assessed by microfluorometric Ca^2+ imaging: i) Ca^2+ entry via the M3 receptor-PLCB-DAG pathway endogenous to HEK293 cells, using Indo-1 as a Ca^2+ indicator; and ii) Ca^2+ entry via mGluR1-PLCB-DAG through co-expression of the mGluR1, using Fluo-4 as a Ca^2+ indicator.
(§2) Cells were grown in DMEM media on 18 mm circular coverslips coated with poly-D-lysine (25 μg/ml) and collagen (25 μg/ml) at 1:1 ratio. The cells were washed with HPSS. The coverslips were then incubated with HPSS and 0.1% pluronic acid, along with either 1 μM Indo-1AM or Fluo-4AM Ca^2+ indicator (Invitrogen, U.S.A.) for an hour prior to the experiment. The cells were then placed into HPSS with 5 μM GdCl3 to block endogenous Ca^2+ entry (added to all superfusions). The M3 AChR-mediated TRPC3 activation was achieved by bath application of carbachol. The mGluR1-mediated TRPC3 activation was achieved by bath application of DHPG.
(§3) For Indo-1 experiments, the cells were mounted on a Nikon TMD inverted microscope fitted with an Indo-1 filter set (Nikon Indo-1 filter cube, 485 nm/DM455 nm/405 nm) and illuminated with a mercury lamp. Cells were excited at 350 nm, with dual emission of the field was detected at 410 nm and 480 nm using two photomultiplier tubes, and the ratioed emission was determined in real-time using in-house software. […]

[2] = target: T2, recombinant mouse TRPC3c channels (Mus musculus, UniProt Q9QZC1, DEL811-838); assay: Indo-1 ratiometric Ca2+ imaging of CCh-activated Ca2+ entry, HEK293 cells expressing TRPC3c; assay type: cell-based; details: genistein 200 μM pre-incubation, n=5, without genistein 575.6±44.2 nM
T2 construct: expressed in transfected cells; host or cells: HEK293 cells, stably transfected (pIRES-DsRed2 vector)
T2 sequence (Q9QZC1 with tags, fused parts or gaps DEL811-838): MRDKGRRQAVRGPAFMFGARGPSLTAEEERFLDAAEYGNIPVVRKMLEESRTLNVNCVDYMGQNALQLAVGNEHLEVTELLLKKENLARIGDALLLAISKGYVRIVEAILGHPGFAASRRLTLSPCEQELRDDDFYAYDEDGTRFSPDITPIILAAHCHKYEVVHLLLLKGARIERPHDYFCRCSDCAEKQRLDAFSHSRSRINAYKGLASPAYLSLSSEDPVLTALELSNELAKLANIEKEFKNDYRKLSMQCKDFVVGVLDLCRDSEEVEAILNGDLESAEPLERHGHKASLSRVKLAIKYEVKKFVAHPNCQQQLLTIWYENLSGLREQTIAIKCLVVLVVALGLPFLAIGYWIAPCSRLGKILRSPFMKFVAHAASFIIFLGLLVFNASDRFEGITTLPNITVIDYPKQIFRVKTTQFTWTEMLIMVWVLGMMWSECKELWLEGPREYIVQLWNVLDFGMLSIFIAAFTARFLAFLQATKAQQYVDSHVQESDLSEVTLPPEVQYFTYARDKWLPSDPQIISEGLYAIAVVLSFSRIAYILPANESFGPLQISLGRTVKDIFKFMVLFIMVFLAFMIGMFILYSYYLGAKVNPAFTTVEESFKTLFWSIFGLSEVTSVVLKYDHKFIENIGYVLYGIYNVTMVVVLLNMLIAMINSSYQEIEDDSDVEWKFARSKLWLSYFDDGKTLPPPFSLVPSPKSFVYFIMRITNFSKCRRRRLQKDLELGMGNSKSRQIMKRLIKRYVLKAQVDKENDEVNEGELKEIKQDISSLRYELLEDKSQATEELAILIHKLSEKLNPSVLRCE
Experimental: as §1, §2, §3

## O=c1c(-c2ccc(O)cc2)coc2cc(O)cc(O)c12 [genistein, 4′, 5,7-trihydroxyisoflavone]
[1]
  peak [Ca2+] on return of extracellular Ca2+ (CCh-activated Ca2+ entry): 86.7 ± 8.7 nM
[2]
  peak [Ca2+] on return of extracellular Ca2+ (CCh-activated Ca2+ entry): 81.9 ± 19.8 nM
